# Counter-ions that a name gives are not always drawn.
# Assays:
# [1] = biological target: T1, HIV integrase enzyme (Human immunodeficiency virus type 1 group M subtype B, UniProt P04585); experiment: HIV integrase initial screening (3′ processing function); assay type: biochemical; conditions: Example 2 compounds; Conc. 50 μg/mL; 3′ processing function of the enzyme
# T1 construct: against the HIV integrase enzyme
# Text: Compounds synthesized in Example 2 were additionally included in a random database screening strategy against the HIV integrase enzyme.
# The compounds that were chosen to be tested against HIV integrase were 78, 81, 88 and 89 and the results are represented in Table 4.
# The results for the screening of the four target molecules 165-168 against the HIV integrase enzyme yielded some encouraging results which supported the proposed mechanism of binding in the active binding trench of the HIV integrase enzyme. The testing procedure for the four target compounds differed from the original screening protocols employed. The original screening measured inhibition against the 3′ processing function of the enzyme at the fixed concentration of 50 μg/mL, whereas the four target molecules were tested in an assay adapted from a literature procedure,^107 which measures inhibition against the 3′ strand transfer function of the enzyme. This allows a result to be obtained as an inhibition constant (IC50) concentration, which is the standard measurement of inhibition within the literature. Along with the four target molecules, 88 was also re-tested in the 3′ strand transfer assay to determine the IC50 for direct comparison with the literature.
# [2] = tested on: #449 E. faecium van B ST17; experiment: Antibacterial assay (MIC), VRE strain #449, Enterococossel Broth, Example 1; assay type: cell-based, Enterococcus faecium; conditions: Enterococcus faecium; Example 1 compounds; VRE #449 E. faecium van B; 24 hrs, 37° C.; read-out: 449 (minimum inhibitory concentration)
# Protocol: (§1) Antibacterial Assay Method for Staphylococcus aureus (ATCC 6538P) and Enterococcus faecium
# (§2) VRE strains: #243 E. faecium van B ST17 #449 E. faecium van B ST17
# (§3) Compounds are accurately weighed out (between approx. 1-2 mg) and dissolved in either 10% methanol/water (v/v) or 100% DMSO to a final stock concentration of 5 mg/ml.
# (§4) Compounds are then diluted 1/10 in H2O to a test conc of 500 ug/ml ready for immediate use, or storage at −20° C.
# (§5) Grow up an o/n starter culture of Staphylococcus aureus and each VRE strain by diluting previous culture (stored at 4° C.) 1/1000 into −50 mls Luria Broth (LB) for S. aureus or Enterococossel Broth (EB) for the VRE strains.
# (§6) Incubate o/n at 37° C.+shaking. • A glycerol stock (0.6 mls bacterial culture, 0.3 mls glycerol) of each strain is kept at −80° C. if needed. Assay Set Up:
# (§7) In a 96well round bottom plate add 50 ul LB/well for the S. aureus plate and add 50 ul EB/well for the VRE plates.
# (§8) Add 50 ul of compound dilution (500 ug/ml test conc) to each of three top row wells (ie: tested in triplicate) and dilute 1 in 2 from the top row to the bottom row.
# (§9) After the compound dilution, add to each well 50 ul of a 1/1000 dilution of the appropriate overnight bacterial culture, either S. aureus or the different VRE strains.
# (§10) Plates are incubated at 37° C. on a slowly rotating plate incubator. • test concentrations are (in ug/ml) 125, 62.5, 31.25, 15.6, 7.8, 3.9, 1.9, 0.98 • final DMSO concentration in the first row of wells of the assay is 2.5% • Vancomycin is included in the assay (in triplicate) at a starting test concentration of 5 ug/ml for S. aureus and 125 ug/ml for the VRE strains Reading Results of Assay:
# (§11) After incubation for 24 hrs the plates are removed and read. Inhibition of bacterial growth is indicated by lack of bacterial pellet or a clear well. In the VRE plates bacterial growth is indicated by black coloured media (EB) as well as a bacterial pellet.
# (§12) Untreated control wells are included in the assay to check they all contain bacterial pellets. Uninoculated untreated control wells are included to check they all contain clear medium.
# (§13) The plates are analysed for MIC and the results tabulated.
# [3] = tested on: #820 E. faecium van A ST17; experiment: Antibacterial assay (MIC), VRE strain #820, Enterococossel Broth, Example 1; assay type: cell-based, Enterococcus faecium; conditions: Enterococcus faecium; Example 1 compounds; VRE #820 E. faecium van A; 24 hrs, 37° C.; read-out: 820 (minimum inhibitory concentration)
# Protocol: as §1
# (§14) #820 E. faecium van A ST17 #987 E. faecium van B ST39
# as §3, §4, §5, §6, §7, §8, §9, §10, §11, §12, §13
# [4] = tested on: Multi-Drug-Resistant Staphylococcus epidermidis (ATCC 700562); experiment: MIC determination by micro-broth dilution (NCCLS), multi-drug-resistant S. epidermidis; assay type: cell-based; conditions: ATCC700562, Example 1 compounds, Mueller Hinton II broth, 24 hours, 37° C.
# Protocol: (§15) Antibacterial Assay Methods for Staphylococcus aureus Mu50 (ATCC 700699), Methicillin-Resistant Staphylococcus aureus (ATCC 43300), Multi-Drug-Resistant Staphylococcus epidermidis (ATCC 700562) Compounds
# (§16) The compounds were stored at room temperature in the dark prior to use. Each compound was solubilized in DMSO to a final concentration of 40 mg/mL. The stock material was diluted to a concentration equivalent to two times the final in-well high test concentration (100 μg/mL for all experimental compounds) in Mueller Hinton II broth. […] Vancomycin and oxacillin were obtained from Sigma Aldrich Chemical Company and were used as positive and/or negative control compounds in the reported assays at high test concentrations of 100, 25 and 100 μg/mL respectively.
# (§17) The bacterial strains employed in these assays were obtained from the American Type Culture Collection (ATCC). All of the bacterial strains were propagated as recommended by the ATCC. Each strain was stored as a frozen glycerol stock at −80° C. and a 10 μL loop of the frozen stocks was used to inoculate each culture for these assays.
# (§18) The susceptibility of the above microorganisms to the test compounds was evaluated by determining the MIC of each compound using micro-broth dilution analysis according to the methods recommended by the NCCLS. All microbial strains were obtained from American Type Culture Collections (ATCC) and cultured according to the suppliers recommendations. Evaluation of the susceptibility of each organism against the test compounds included a positive control antibiotics Vancomycin and Oxacillin. For each organism, a standardized inoculum was prepared by direct suspension of freshly plated colonies in Mueller Hinton II broth to an optical density 625 nm (OD625) of 0.1 (equivalent to a 0.5 McFarland standard). The suspended inoculum was diluted to a concentration of approximately 1×10^6 colony forming units per milliliter (CFU/mL) and 100 μL placed into triplicate wells of a 96-well plate containing 100 μL of test compound serially diluted 2-fold in Mueller Hinton II broth. One hundred microliters of the inoculum was also added to triplicate wells containing 100 μL of two-fold serial dilutions of a positive control antibiotic and to wells containing 100 μL of media only. This dilution scheme yielded final concentrations for each microbial organism estimated to be 5×10^5 CFU/mL (verified by colony quantification on appropriate agar plates, data is not presented). Test compound concentrations ranged from a high-test of 1:2 (100 μg/mL)) to a low test of 1:2048 (0.1 μg/mL) using a two-fold dilution scheme. The plates were incubated for 24 hours at 37° C., and the microbial growth at each concentration of compound was determined by measuring the optical density at 625 nm on a Molecular Devices SpectraMax Plus-384 plate reader.
# (§19) Microsoft Excel 2003 was used to analyze and graph the data, and the MIC (minimal inhibitory concentration) was determined from the resulting data.
# [5] = tested on: Staphylococcus aureus (ATCC 6538P); experiment: Antibacterial assay (MIC), Staphylococcus aureus ATCC 6538P, Luria Broth, Example 1; assay type: cell-based; conditions: Staphylococcus aureus, ATCC6538P; Example 1 compounds; S. aureus ATCC 6538P; 24 hrs, 37° C.; range if at least two of three values fell within it; read-out: Sa (minimum inhibitory concentration)
# Protocol: as §1
# Staphylococcus aureus (ATCC 6538P)
# as §3, §4, §5, §6, §7, §8, §9, §10, §11, §12, §13
# [6] = tested on: Staphylococcus aureus Mu50 (ATCC 700699); experiment: MIC determination by micro-broth dilution (NCCLS), S. aureus Mu50; assay type: cell-based; conditions: ATCC700699, Example 1 compounds, Mueller Hinton II broth, 24 hours, 37° C.
# Protocol: as §15, §16, §17, §18, §19
# [7] = tested on: Methicillin-Resistant Staphylococcus aureus (ATCC 43300); experiment: MIC determination by micro-broth dilution (NCCLS), methicillin-resistant S. aureus; assay type: cell-based; conditions: ATCC43300, Example 1 compounds, Mueller Hinton II broth, 24 hours, 37° C.
# Protocol: as §15, §16, §17, §18, §19
# [8] = tested on: #243 E. faecium van B ST17; experiment: Antibacterial assay (MIC), VRE strain #243, Enterococossel Broth, Example 1; assay type: cell-based, Enterococcus faecium; conditions: Enterococcus faecium; Example 1 compounds; VRE #243 E. faecium van B; 24 hrs, 37° C.; read-out: 243 (minimum inhibitory concentration)
# Protocol: as §1, §2, §3, §4, §5, §6, §7, §8, §9, §10, §11, §12, §13
# [9] = tested on: #987 E. faecium van B ST39; experiment: Antibacterial assay (MIC), VRE strain #987, Enterococossel Broth, Example 1; assay type: cell-based, Enterococcus faecium; conditions: Enterococcus faecium; Example 1 compounds; VRE #987 E. faecium van B; 24 hrs, 37° C.; read-out: 987 (minimum inhibitory concentration)
# Protocol: as §1, §14, §3, §4, §5, §6, §7, §8, §9, §10, §11, §12, §13
# [10] = tested on: MRSA isolates; conditions: 43 MRSA isolates from adults with community respiratory infections; cited from earlier work
Compound,inhibition at 50 µg/mL [1],MIC [2],MIC [3],MIC [4],MIC [5],MIC [6],MIC [7],MIC [8],MIC [9],susceptibility rates [10]
"C=CCOc1ccc(C[C@H](NC(C)=O)C(=O)N[C@@H](CCCCNC(=N)N)C(=O)N[C@@H](CC=C)C(=O)OC)cc1 [Compound 88, Methyl(2S,5S,8S)-2-allyl-9-(4-allyloxyphenyl)-5-(4-[guanidino]butyl)-3,6,9-triaza-4,7,10-trioxoundecanoate hydrochloride]",95%,,,,,,,,,
"CC(C)CCOc1ccc2ccccc2c1-c1c(OCC(=O)N[C@H](CCCCN)C(=O)N[C@H](CCCNC(=N)N)C(=O)N[C@H](COCc2ccccc2)CC(C)C)ccc2ccccc12.Cl.Cl (atropisomer, axis not shown) [Compound 15]",,15.7 to 62.5 µg/mL,15.7 to 62.5 µg/mL,0.99 to 15.6 µg/mL,0.99 to 15.6 µg/mL,0.99 to 15.6 µg/mL,0.99 to 15.6 µg/mL,15.7 to 62.5 µg/mL,15.7 to 62.5 µg/mL,
"COC(=O)[C@@H]1CC=CCOc2ccc(cc2)C[C@H](NC(C)=O)C(=O)N[C@@H](CCCCNC(=N)N)C(=O)N1 [Compound 89, (7S,10S,13S,4E/Z)-13-Acetamido-10-(4-[guanidino]butyl)-8,11-diaza-7-methoxycarbonyl-2-oxa-9,12-dioxo-1(1,4)phenylenacyclotetradecaphane-4-ene hydrochloride]",4%,,,,,,,,,
"C=CCOc1ccc(C[C@H](NC(C)=O)C(=O)N[C@@H](CCCCN)C(=O)N[C@@H](CC=C)C(=O)OC)cc1 [Compound 78, hydrochloride]",15%,,,,,,,,,
"Cl.Cl.N=C(N)NCCC[C@@H](NC(=O)CCCOc1ccc2ccccc2c1-c1c(OCCCC(=O)N[C@H](CCCNC(=N)N)C(=O)OCc2ccccc2)ccc2ccccc12)C(=O)OCc1ccccc1 (atropisomer, axis not shown) [Compound 31]",,15.7 to 62.5 µg/mL,15.7 to 62.5 µg/mL,0.99 to 15.6 µg/mL,0.99 to 15.6 µg/mL,15.7 to 62.5 µg/mL,0.99 to 15.6 µg/mL,15.7 to 62.5 µg/mL,15.7 to 62.5 µg/mL,
"CC(C)CCOc1ccc2ccccc2c1-c1c(OCCNC(=O)[C@@H](CCCCN)NC(=O)[C@@H](CCCNC(=N)N)NC(=O)[C@@H](CC(C)C)NC(=O)Cc2ccccc2)ccc2ccccc12.Cl.Cl (atropisomer, axis not shown) [Compound 30]",,> 62.6 µg/mL,> 62.6 µg/mL,0.99 to 15.6 µg/mL,0.99 to 15.6 µg/mL,0.99 to 15.6 µg/mL,0.99 to 15.6 µg/mL,> 62.6 µg/mL,> 62.6 µg/mL,
gentamicin,,,,,,,,,,86%
"CC(C)CCOc1ccc2ccccc2c1-c1c(OCC(=O)N[C@H](CCCCN)C(=O)N[C@H](CCCNC(=N)N)C(=O)N[C@@H](CC(C)C)c2nc(S(=O)(=O)O)c(-c3ccccc3)o2)ccc2ccccc12.Cl.Cl (atropisomer, axis not shown) [Compound 17]",,15.7 to 62.5 µg/mL,15.7 to 62.5 µg/mL,0.99 to 15.6 µg/mL,< 0.98 µg/mL,0.99 to 15.6 µg/mL,0.99 to 15.6 µg/mL,15.7 to 62.5 µg/mL,15.7 to 62.5 µg/mL,
"CC(C)CCOc1ccc2ccccc2c1-c1c(OCC(=O)N[C@H](CCCCN)C(=O)N[C@H](CCCNC(=N)N)C(=O)NC2(C(=O)OCc3ccccc3)CCCCC2)ccc2ccccc12.Cl.Cl (atropisomer, axis not shown) [Compound 21]",,15.7 to 62.5 µg/mL,15.7 to 62.5 µg/mL,0.99 to 15.6 µg/mL,0.99 to 15.6 µg/mL,0.99 to 15.6 µg/mL,0.99 to 15.6 µg/mL,15.7 to 62.5 µg/mL,15.7 to 62.5 µg/mL,
"C=CCOc1ccc(C[C@H](NC(C)=O)C(=O)N[C@@H](CCCNC(=N)N)C(=O)N[C@@H](CC=C)C(=O)OC)cc1 [Compound 81, Methyl(2S,5S,8S)-2-allyl-8-(4-allyloxybenzyl)-3,6,9-triaza-5-(3-[guanidino]propyl)-4,7,10-oxoundecanoate hydrochloride]",70%,,,,,,,,,
"CC(C)CCOc1ccc2ccccc2c1-c1c(OCC(=O)N[C@H](CCCCN)C(=O)N[C@H](CCCNC(=N)N)C(=O)N[C@@H](CC(C)C)C(=O)OCc2ccccc2)ccc2ccccc12.Cl.Cl (atropisomer, axis not shown) [Compound 1]",,15.7 to 62.5 µg/mL,0.99 to 15.6 µg/mL,0.99 to 15.6 µg/mL,0.99 to 15.6 µg/mL,0.99 to 15.6 µg/mL,0.99 to 15.6 µg/mL,15.7 to 62.5 µg/mL,15.7 to 62.5 µg/mL,
"CC(C)CCOc1ccc2ccccc2c1-c1c(OCC(=O)N[C@H](CCCCN)C(=O)N[C@H](CCCNC(=N)N)C(=O)N[C@@H](CC(C)C)c2ncc(-c3ccccc3)o2)ccc2ccccc12.Cl.Cl (atropisomer, axis not shown) [Compound 16]",,> 62.6 µg/mL,> 62.6 µg/mL,0.99 to 15.6 µg/mL,0.99 to 15.6 µg/mL,0.99 to 15.6 µg/mL,0.99 to 15.6 µg/mL,> 62.6 µg/mL,> 62.6 µg/mL,

# Source: US8039430B2 (University of Wollongong, priority 2005, dated 2011)
